Laboratory results reported in patent publication US8853129B2 (Dow AgroSciences, LLC., priority 2010, dated 2014).

Assays:
Assay in all cases: Herbicidal activity of mixtures under field conditions, residual weed control in grape crop
Type in all cases: in vivo
[1] = tested on: common purslane (Portulaca oleracea; POROL); details: penoxsulam 7 g ai/ha; 103 days after application, Fronton, France; glyphosate tank mixed
Description: (§1) Trials were conducted under field conditions in France. Trial sites were located in commercially grown European grape crop (Vitis vinifera). The grapes were grown using normal cultural practices for fertilization, seeding, and maintenance to ensure good growth of the crop and the weeds. The trials were conducted using normal research methodology. Trial plots were between 2 to 4.5 meters (m) wide by 5.5 to 10 m long. […] The trial sites had naturally occurring populations of weeds. The weed spectrum included, but was not limited to, black nightshade (Solanum nigrum; SOLNI), common lambsquarter (Chenopodium album; CHEAL), common groundsel (Senecio vulgaris; SENVU), round-leaved […] spuria; KICSP) and common purslane (Portulaca olerace; POROL). […] Glyphosate was tank mixed with all treatments to provide complete foliar control of all weeds so that the residual weed control after application could be evaluated. The application volumes were between 150-325 liters per hectare (L/ha) of water. All application were made using precision gas hand sprayers using a 2 or 3 m boom using flat fan (80° or 110°) nozzles to broadcast the treatments on the soil. The treated plots and control plots were rated blind at various intervals after application. […] Data were collected for all trials and analyzed using various statistical methods. Colby's equation was used to determine the herbicidal effects expected from the mixtures (Colby, S. R. Calculation of the synergistic and antagonistic response of herbicide combinations. Weeds 1967, 15, 20-22). […] A=observed efficacy of active ingredient A at the same concentration as used in the mixture; B=observed efficacy of active ingredient B at the same concentration as used in the mixture.

[2] = tested on: common groundsel (Senecio vulgaris; SENVU); details: penoxsulam 7 g ai/ha; 103 days after application, Fronton, France; glyphosate tank mixed
Description: as §1

[3] = tested on: round-leaved fluellen (Kickxia spuria; KICSP); details: penoxsulam 7 g ai/ha; 103 days after application, Fronton, France; glyphosate tank mixed
Description: as §1

[4] = tested on: black nightshade (Solanum nigrum; SOLNI); details: France, glyphosate tank mixed
Description: as §1

[5] = tested on: common lambsquarter (Chenopodium album; CHEAL); details: penoxsulam 7 g ai/ha; 109 DAA, Fronton, France; glyphosate tank mixed
Description: as §1

## COc1cnc(OC)n2nc(NS(=O)(=O)c3c(OCC(F)F)cccc3C(F)(F)F)nc12 [Penoxsulam]
[1]
  Percent Control POROL Ob: 0%
[2]
  Percent Control SENVU Ob: 27%
[3]
  Percent Control KICSP Ob: 0%
[4]; penoxsulam 5.6 g ai/ha, 56 DAA, Bourdic
  Percent Control SOLNI (1) Ob: 78%
[4]; penoxsulam 7 g ai/ha, 68 DAA, Eshallat
  Percent Control SOLNI (2) Ob: 17%
[5]
  Percent Control CHEAL Ob: 13%
